Test systems include BT-549 breast; EKVX NSCLC; MDA-MB-231 breast; NCI-H460 lung; NCI-H522 lung; SN12C renal; SNB-19 CNS; SNB-75 CNS; U251 CNS; A498 renal.
What all share (test): growth of human tumour cells (NCI), 48 h

The results in this text go back to PubChem BioAssay (NCI).

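96-well plates; 48 h exposure; 5 concentrations. Endpoints by linear interpolation between flanking doses. Not reached: highest tested concentration assigned. At the GI50, growth is halved. The concentration for full growth arrest is given as TGI.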

`CC(C)(C)c1nnc2n(c1=O)N=CC(c1ccc(Br)cc1)S2` (centres undefined): the GI50 was 24.3 µM with BT-549 breast; 22.7 µM in the assay with EKVX NSCLC; 24.5 µM in the assay on MDA-MB-231 breast; 30.1 µM with NCI-H460 lung; 19.2 µM in the assay on NCI-H522 lung; 27.7 µM with SN12C renal. In addition, the figures for the GI50 with SNB-19 CNS, in the assay on SNB-75 CNS and in the assay with U251 CNS were 51.3 µM, 21.5 µM and 26 µM, respectively. Besides, the TGI in the assay with BT-549 breast was 74.7 µM; in the assay on EKVX NSCLC, 66.7 µM; with MDA-MB-231 breast, 48.1 µM; in the assay on NCI-H460 lung, more than 100 µM; with NCI-H522 lung it was 41.7 µM; in the assay on SN12C renal it was 57.2 µM. Further, the TGI is more than 100 µM in the assay with SNB-19 CNS, 96.6 µM in the assay with SNB-75 CNS and 66.9 µM in the assay with U251 CNS.
On to `COP1(=S)OCC2CCC[C@@H]2O1` (some centres undefined), for which the TGI in the assay with A498 renal, in the assay on BT-549 breast, in the assay with MDA-MB-231 breast, with NCI-H460 lung, with NCI-H522 lung and in the assay with SN12C renal was more than 100 µM in each case. For the same compound, the TGI in the assay with SNB-19 CNS, with SNB-75 CNS and in the assay with U251 CNS was more than 100 µM throughout.
As for `N#Cc1ccc2oc3ccc(C#N)cc3c(=O)c2c1`, the TGI with A498 renal is 28.9 µM; in the assay with BT-549 breast it was 53.7 µM; in the assay with MDA-MB-231 breast it was more than 100 µM; in the assay with NCI-H460 lung, 37.4 µM; in the assay on NCI-H522 lung, more than 100 µM; in the assay with SN12C renal, more than 100 µM. Moreover, the TGI with SNB-19 CNS was 64.8 µM; with SNB-75 CNS, 58.6 µM; in the assay on U251 CNS, 31.7 µM.
In the case of `Cc1nc2ccc(NCCN(C)C)c3c(=O)c4cc(O)ccc4n1c23`, the TGI amounted to 4.93 µM in the assay on A498 renal; 19 µM in the assay with BT-549 breast; 13.2 µM in the assay with MDA-MB-231 breast; 1.39 µM in the assay on NCI-H460 lung; 1.98 µM in the assay with NCI-H522 lung; 4.93 µM with SN12C renal. The values for the TGI with SNB-19 CNS, in the assay with SNB-75 CNS and with U251 CNS were 7.06 µM, 5.63 µM and 11.7 µM, respectively.
In the case of `CCC(C)CC(CC)NCCN1CCN(C(CC)CC(C)CC)C1=S` (centres undefined), the GI50 in the assay with BT-549 breast is 2.39 µM; with EKVX NSCLC it was 1.93 µM; in the assay on MDA-MB-231 breast it was 1.84 µM; in the assay on NCI-H460 lung it was 2.5 µM; with NCI-H522 lung, 1.74 µM; with SN12C renal, 2.55 µM. The results for the GI50 in the assay on SNB-19 CNS, in the assay on SNB-75 CNS and with U251 CNS were 1.73 µM, 1.49 µM and 1.55 µM, respectively. Besides, the TGI came to 4.52 µM with BT-549 breast; 5.13 µM with EKVX NSCLC; 3.55 µM in the assay with MDA-MB-231 breast; 4.1 µM in the assay with NCI-H460 lung; 3.24 µM in the assay on NCI-H522 lung; 7.83 µM with SN12C renal. Moreover, the figures for the TGI in the assay with SNB-19 CNS, in the assay with SNB-75 CNS and with U251 CNS were 3.87 µM, 2.82 µM and 2.88 µM, respectively.
Take `COc1cccc2c(Nc3ccc(C(=O)NCCN(C)C)cc3)cc(-c3ccccc3)nc12`: the GI50 in the assay on A498 renal is 17.2 µM; in the assay on BT-549 breast it was 20.3 µM; in the assay on EKVX NSCLC, 27 µM; with MDA-MB-231 breast, 4.15 µM; in the assay on NCI-H522 lung, 16.6 µM; with SN12C renal it was 16.1 µM. The GI50 in the assay with SNB-75 CNS is 29.5 µM; in the assay with U251 CNS, 18.8 µM. For the same compound, the TGI stood at 32 µM in the assay with A498 renal; 44.8 µM in the assay with BT-549 breast; 81.4 µM with EKVX NSCLC; 19.4 µM in the assay on MDA-MB-231 breast; 32.4 µM with NCI-H522 lung; 36.4 µM with SN12C renal. For the same compound, the TGI with SNB-75 CNS came to 66 µM; in the assay with U251 CNS it was 38.3 µM.
For `Nc1nc(Nc2ccc3c(c2)CCC(N2CCCC2)CC3)nn1-c1cc2c(nn1)-c1ccccc1CCC2` (centres undefined), the GI50 with A498 renal was 0.274 µM; with BT-549 breast it was 1.52 µM; in the assay with MDA-MB-231 breast, 1.46 µM; in the assay with NCI-H460 lung, 1.08 µM; with NCI-H522 lung, 1.71 µM; in the assay with SN12C renal, 0.378 µM. The figures for the GI50 in the assay with SNB-19 CNS, in the assay on SNB-75 CNS and with U251 CNS were 1.6 µM, 0.792 µM and 1.09 µM, respectively. The TGI was determined as 1.24 µM in the assay on A498 renal; 3.01 µM in the assay on BT-549 breast; 3.04 µM in the assay with MDA-MB-231 breast; 2.63 µM in the assay on NCI-H460 lung; 3.27 µM in the assay on NCI-H522 lung; 1.81 µM with SN12C renal. The TGI was determined as 3.4 µM in the assay on SNB-19 CNS, 2.18 µM with SNB-75 CNS and 2.39 µM in the assay on U251 CNS.
Regarding `COc1ccc(-c2c(C#N)c(N)nc3c2CCCc2ccc(F)cc2-3)cc1OC`, the GI50 in the assay on BT-549 breast is 0.556 µM; in the assay on EKVX NSCLC, 0.0861 µM; in the assay on MDA-MB-231 breast, less than 0.0399 µM; in the assay with NCI-H460 lung it was 0.0163 µM; in the assay on NCI-H522 lung, less than 0.01 µM; with SN12C renal it was less than 0.0499 µM. Moreover, the GI50 in the assay on SNB-19 CNS is 20.7 µM; with SNB-75 CNS it was 1.36 µM; in the assay on U251 CNS, less than 0.0501 µM. Also, the TGI with BT-549 breast is 26.2 µM; in the assay on MDA-MB-231 breast, 0.758 µM; in the assay on NCI-H460 lung it was more than 52.6 µM; in the assay with NCI-H522 lung it was 33.5 µM; in the assay on SN12C renal it was 4.75 µM; in the assay with SNB-19 CNS, more than 92.1 µM. Moreover, the TGI in the assay on SNB-75 CNS was more than 100 µM.
As for `COc1ccc(-c2nn(-c3cccc(NC(=O)Nc4cccc(C(F)(F)F)c4)c3)cc2-c2ccncc2)cc1Cl`, the GI50 in the assay with A498 renal was 1.61 µM; in the assay on BT-549 breast, 1.68 µM; in the assay with MDA-MB-231 breast, 2.18 µM; in the assay with NCI-H460 lung, 1.76 µM; in the assay on NCI-H522 lung, 1.6 µM; in the assay on SN12C renal, 2.4 µM. The GI50 is 3.85 µM with SNB-19 CNS, 1.51 µM in the assay on SNB-75 CNS and 1.06 µM with U251 CNS. In addition, the TGI was 5.81 µM with A498 renal; 4.55 µM in the assay on BT-549 breast; 19.8 µM in the assay with MDA-MB-231 breast; 11.5 µM with NCI-H460 lung; 6.07 µM in the assay on NCI-H522 lung; more than 100 µM with SN12C renal. For the same compound, the results for the TGI in the assay on SNB-19 CNS, with SNB-75 CNS and in the assay with U251 CNS were more than 100 µM, 8.37 µM and 3.98 µM, respectively.
On to `COc1cccc(C2C(C#N)=C(N)Oc3cc(OC)ccc32)c1` (centres undefined), for which the GI50 in the assay on A498 renal is 0.0198 µM; in the assay on BT-549 breast, 0.106 µM; in the assay on MDA-MB-231 breast it was 0.0519 µM; in the assay with NCI-H460 lung, 0.0353 µM; in the assay on NCI-H522 lung, less than 0.0105 µM; in the assay with SN12C renal, 0.0773 µM. Also, the figures for the GI50 in the assay with SNB-19 CNS, with SNB-75 CNS and in the assay on U251 CNS were 0.517 µM, 0.0263 µM and 0.0419 µM, respectively. Moreover, the TGI is 0.0709 µM with A498 renal; 17 µM in the assay on BT-549 breast; 1.49 µM with MDA-MB-231 breast; 3.64 µM with NCI-H460 lung; 0.0556 µM in the assay on NCI-H522 lung; more than 41.8 µM in the assay on SN12C renal. Also, the TGI is more than 89.6 µM in the assay with SNB-19 CNS, more than 49.6 µM in the assay on SNB-75 CNS and more than 100 µM with U251 CNS.
